Test results: patent US8178506B2, “Oligomeric compounds and compositions for use in modulation of small non-coding RNAs” (Regulus Therapeutics Inc., priority 2003, dated 2012)
“Also recorded” adds a separate entry of the source. In the oligonucleotide strings, read from the 5' end, every base follows the letter of its sugar. An asterisk marks phosphorothioate; unmarked linkages are phosphodiester. Other units and linkages are bracketed, terminal groups are in braces. A string of capitals states the bases alone. e = 2'-O-(2-methoxyethyl) (MOE); [5mC] = 5-methylcytosine; d = 2'-deoxy (DNA)

Tests used:
[1] = test system: preadipocytes / differentiating adipocytes; assay: Adipocyte differentiation assay, markers taken together; type: cell-based, human; conditions: for five markers of adipocyte differentiation / 5 markers of adipocyte differentiation / expression of the other four hallmark genes (HSL, aP2, Glut4, PPARγ): differentiating adipocytes; for five markers of adipocyte differentiation: % of UTC (Table 55); for expression levels of markers of adipocyte differentiation (TG, leptin, aP2, HSL, Glut4, PPARγ): preadipocytes, 250 nM, day nine post-transfection, relative to ISIS-29848; for 5 markers of adipocyte differentiation: % of UTC (Table 75); for expression of the other four hallmark genes (HSL, aP2, Glut4, PPARγ): control ISIS 342673
Experimental: Oligomeric compounds of the invention are tested for their effects on preadipocyte differentiation. […] For the other adipocyte differentiation markers assayed, an oligomeric compound targeted to PPAR-γ, also known to inhibit adipocyte differentiation, may be used as a positive control.
Cells are transfected as described herein. […] Untreated control cells receive LIPOFECTIN™ only.
After the cells have reach confluence (approximately three days), they are exposed for an additional three days to differentiation medium (Zen-Bio, Inc., Research Triangle Park, N.C.) containing a PPAR-γ agonist, IBMX, dexamethasone, and insulin. Cells are then fed adipocyte medium (Zen-Bio, Inc.), which is replaced at 2 or 3 day intervals.
For assaying adipocyte differentiation, expression of the four hallmark genes, HSL, aP2, Glut4, and PPARγ, as well as triglyceride (TG) accumulation and leptin secretion were measured in adipocytes transfected with the uniform 2′-MOE phosphorothioate (PS) oligomeric compounds previously described. Cells are lysed on day nine post-transfection, in a guanadinium-containing buffer and total RNA is harvested. Real-time PCR is performed (Applied Biosystems, Prism 7700) on the total RNA using the following primer/probe sets for the adipocyte differentiation hallmark genes: (aP2): forward 5′-GGTGGTGGAATGCGTCATG-3′ (SEQ ID NO: 746), reverse 5′-[…]-3′ (SEQ ID NO: 747), probe 5′-FAM-[…]-TAMRA-3′ (SEQ ID NO: 748); (Glut4): forward 5′-GGCCTCCGCAGGTTCTG-3′ (SEQ ID NO: 749), reverse 5′-[…]-3′ (SEQ ID NO: 750), probe 5′-FAM-[…]-TAMRA-3′ (SEQ ID NO: 751); (HSL): forward 5′-ACCTGCGCACAATGACACA-3′ (SEQ ID NO: 752), reverse 5′-[…]-3′ (SEQ ID NO: 753), probe 5′-FAM-[…]-TAMRA-3′ (SEQ ID NO: 754); (PPAR-γ): forward 5′-[…]-3′ (SEQ ID NO: 755), reverse 5′-[…]-3′ (SEQ ID NO: 756), probe 5′-FAM-[…]-TAMRA-3′ (SEQ ID NO: 757). The amount of total RNA in each sample is determined using a Ribogreen Assay (Molecular Probes, Eugene, Oreg.), and expression levels of the adipocyte differentiation hallmark genes were normalized to total RNA. Leptin protein and triglyceride levels as well as mRNA levels for each of the four adipocyte differentiation hallmark genes are expressed relative to control levels (control=treatment with ISIS-29848 (SEQ ID NO: 737)).
In some embodiments, differentiating adipocytes were treated with uniform 2′-MOE phosphorothioate oligomeric compounds according to the methods described above, and the expression of the four hallmark genes, HSL, aP2, Glut4, and PPARγ, as well as triglyceride (TG) accumulation were measured. […] Undifferentiated adipocytes were also compared as a negative control. […] The effects of TNF-α, also known to inhibit adipocyte differentiation, were also measured.

[2] = test system: PEPCK-c; assay: PEPCK-c mRNA expression in HepG2 cells; type: cell-based, human; conditions: HepG2, 1 nM insulin, 100 nM
[3] = test system: PPARγ; assay: PPARγ mRNA expression in adipocytes (real-time PCR); type: cell-based, human; conditions: preadipocytes, 250 nM, day nine
[4] = test system: BJ, B16-F10, T47D, T47Dp53 and HeLa cells; assay: Cell cycle assay (propidium iodide flow cytometry), cell line panel; type: cell-based; conditions: 150 nM, 72 hours (Table 29)
[5] = test system: T47D cells; assay: Caspase-3 activity assay (apoptosis) in T47D cells; conditions: caspase assay, 200 nM; conclusion from Tables 9-12
[6] = test system: HeLa cells; assay: Cell cycle assay in HeLa cells; type: cell-based, human; conditions: HeLa, 150 nM

For “AATCTCATTTTCATACTTGCA (anti-miR; chemistry not fully specified) [ISIS 328114, uniform 2′-MOE PS; targets hypothetical miRNA-138]”, the “five markers of adipocyte differentiation” value [1] was “increase in all five markers of adipocyte differentiation” and the “reduction of PEPCK-c mRNA expression” value [2] was 59%.
“AACCATACAACCTACTACCTCA (chemistry not given here) [ISIS 327931, uniform 2′-MOE PS; targets let-7c]” was tested, and the “expression levels of markers of adipocyte differentiation (TG, leptin, aP2, HSL, Glut4, PPARγ)” value [1] was “increase in four out of six markers of adipocyte differentiation; also recorded: increase in expression levels for several markers of adipocyte differentiation” and the “expression of PPAR-γ” value [3] was “significant increase in the expression of PPAR-γ”.
With “CTACCTGCACGAACAGCACTTT (chemistry not given here) [ISIS 340348, uniform 2′-MOE PS; targets mir-93]” the “5 markers of adipocyte differentiation” value [1] was “significantly reduce the expression levels of 3 of the 5 markers of adipocyte differentiation” and the “percentage of cells with hypodiploid DNA content (subG1)” value [4] was “increased percentage of cells with hypodiploid DNA content”.
“ISIS 328400: 5-10-5 2′-MOE gapmer PS; targets mir-196-2 pri-miRNA (eA*eG*eT*eT*e[5mC]*dA*dA*dA*dA*d[5mC]*dT*d[5mC]*dA*dA*dT*e[5mC]*e[5mC]*e[5mC]*eA*eA)” was tested, and the “five markers of adipocyte differentiation” value [1] was “reduce the expression levels of all five markers of adipocyte differentiation” and the “apoptosis in T47D cells” value [5] was “induce apoptosis”.
With “CCATCTTTACCAGACAGTGTT (anti-miR; chemistry not fully specified) [ISIS 327942, uniform 2′-MOE PS; targets mir-141]” the “expression levels of markers of adipocyte differentiation (TG, leptin, aP2, HSL, Glut4, PPARγ)” value [1] was “significantly reduce the expression levels of 5 of 6 markers of adipocyte differentiation”.
For “ISIS 344340: SEQ ID NO: 1921, targeted to mir-140 (antisense UGUCCGUGGUUCUACCCUGUGGUA; all 2'-MOE, all phosphorothioate, methylation of C and T or U not given here)”, the “5 markers of adipocyte differentiation” value [1] was “significantly reduce the expression levels of 3 of the 5 markers of adipocyte differentiation”.
For “ISIS 346687: SEQ ID NO: 1802, targeted to mir-129-1 (antisense AGCAAGCCCAGACCGCAAAAAG; all 2'-MOE, all phosphorothioate, methylation of C not given here)”, the “5 markers of adipocyte differentiation” value [1] was “significantly reduce the expression levels of 3 of the 5 markers of adipocyte differentiation”.
“CAGACTCCCAACTGACCAGA (chemistry not fully specified) [ISIS 328382, 5-10-5 2′-MOE gapmer PS; targets the mir-143 pri-miRNA]” was tested, and the “expression of the adipocyte differentiation markers, compounds targeting mir-143 miRNA or pri-miRNA compared” value ([1]; preadipocytes (Table 20)) was “more effective in blocking adipocyte differentiation”.
“GTCTGTCAATTCATAGGTCAT (chemistry not given here) [ISIS 327960, uniform 2′-MOE PS; targets mir-215]” was tested, and the “five markers of adipocyte differentiation” value [1] was “reduce the expression levels of all five markers of adipocyte differentiation”.
For “TCCTGGATGATATCTACCTC (chemistry not fully specified) [ISIS 328677, 5-10-5 2′-MOE gapmer PS; targets hypothetical miRNA-120 pri-miRNA]”, the “five markers of adipocyte differentiation” value [1] was “reduce the expression levels of all five markers of adipocyte differentiation”.
For “AACTATACAACCTACTACCTCA (chemistry not fully specified) [ISIS 327903, uniform 2′-MOE PS; targets let-7a-3]”, the “expression levels of markers of adipocyte differentiation (TG, leptin, aP2, HSL, Glut4, PPARγ)” value [1] was “increase in expression levels for several markers of adipocyte differentiation”.
“CCCCATCTTAGCATCTAAGG (chemistry not fully specified) [ISIS 328691, 5-10-5 2′-MOE gapmer PS; targets mir-145 pri-miRNA]” was tested, and the “five markers of adipocyte differentiation” value [1] was “increase in all five markers of adipocyte differentiation”.
With “AGCCTCCTTCTTCTCGTACTA (anti-miR; chemistry not fully specified) [ISIS 328129, uniform 2′-MOE PS; targets hypothetical miRNA-173]” the “expression of the other four hallmark genes (HSL, aP2, Glut4, PPARγ)” value [1] was “reduction of expression of the other four hallmark genes”.
For “ISIS 348127: SEQ ID NO: 1869, targeted to mir-27b (antisense GCAGAACUUAGCCACUGUGAA; all 2'-MOE, all phosphorothioate, methylation of C and T or U not given here)”, the “5 markers of adipocyte differentiation” value [1] was “significant increases in all 5 markers of adipocyte differentiation”.
For “ISIS 340352: SEQ ID NO: 1821, targeted to mir-99 (Mourelatos) (CACAAGAUCGGAUCUACGGGUU; all 2'-MOE, all phosphorothioate, methylation of C and T or U not given here)”, the “5 markers of adipocyte differentiation” value [1] was “increases in 4 of the 5 markers of adipocyte differentiation”.
“AAGGGATTCCTGGGAAAACTGGAC (chemistry not given here) [ISIS 327933, uniform 2′-MOE PS; targets mir-145]” was tested, and the “expression levels of markers of adipocyte differentiation (TG, leptin, aP2, HSL, Glut4, PPARγ)” value [1] was “increase in all six markers of adipocyte differentiation”, the “percentage of cells in the G2/M phase” value [4] was “increased percentage of cells in the G2/M phase” and the “phase of the cell cycle in which cells arrest or delay” value ([6]; 24 hours) was “G2/M-phase”. For the same substance, the “phase of the cell cycle in which cells arrest or delay” value ([6]; 48 hours) was “subG1-phase”.
With “TCCACAAAGCTGAACATGTCT (anti-miR; chemistry not fully specified) [ISIS 328117, uniform 2′-MOE PS; targets hypothetical miRNA-144]” the “expression of the other four hallmark genes (HSL, aP2, Glut4, PPARγ)” value [1] was “reduction of expression of the other four hallmark genes”.
“CCAAGTGTTAGAGCAAGATCA (anti-miR; chemistry not fully specified) [ISIS 328126, uniform 2′-MOE PS; targets hypothetical miRNA-170]” was tested, and the “5 markers of adipocyte differentiation” value [1] was “increases in 4 of the 5 markers of adipocyte differentiation”.
For “ISIS 346685: SEQ ID NO: 1884, targeted to mir-27 (Mourelatos) (antisense GGCGGAACUUAGCCACUGUGAA; all 2'-MOE, all phosphorothioate, methylation of C and T or U not given here)”, the “5 markers of adipocyte differentiation” value [1] was “significant increases in all 5 markers of adipocyte differentiation”.
For “AACACTGATTTCAAATGGTGCTA (anti-miR; chemistry not fully specified) [ISIS 327876, uniform 2′-MOE PS; targets mir-29b-1]”, the “expression levels of markers of adipocyte differentiation (TG, leptin, aP2, HSL, Glut4, PPARγ)” value [1] was “reduce the expression of several hallmark genes of adipocyte differentiation”.
With “ISIS 344615: SEQ ID NO: 1900, targeted to mir-244* (Kosik) (antisense UCAACAAAAUCACUGAUGCUGGA; all 2'-MOE, all phosphorothioate, methylation of C and T or U not given here)” the “5 markers of adipocyte differentiation” value [1] was “significant increases in all 5 markers of adipocyte differentiation”.
In the case of “ISIS 341798: SEQ ID NO: 1871, targeted to mir-123/mir-126 (antisense GCAUUAUUACUCACGGUACGA; all 2'-MOE, all phosphorothioate, methylation of C and T or U not given here)”, the “5 markers of adipocyte differentiation” value [1] is reported as “significantly reduce the expression levels of 3 of the 5 markers of adipocyte differentiation”.
